From patent publication US6048865A, “N^6 -substituted-adenosine-5'-uronamides as adenosine receptor modulator” (priority 1998, dated 2000) come the findings set out here.

“Also recorded” adds a separate entry of the source. Read-outs that look alike come from different tables or passages of the source.

In experiment [1] the target is T1, human A3 adenosine receptor (Homo sapiens, UniProt P0DMS8).
T1 construct: expressed in transfected cells; host or cells: HEK-293 cells
T1 sequence (P0DMS8 1-318): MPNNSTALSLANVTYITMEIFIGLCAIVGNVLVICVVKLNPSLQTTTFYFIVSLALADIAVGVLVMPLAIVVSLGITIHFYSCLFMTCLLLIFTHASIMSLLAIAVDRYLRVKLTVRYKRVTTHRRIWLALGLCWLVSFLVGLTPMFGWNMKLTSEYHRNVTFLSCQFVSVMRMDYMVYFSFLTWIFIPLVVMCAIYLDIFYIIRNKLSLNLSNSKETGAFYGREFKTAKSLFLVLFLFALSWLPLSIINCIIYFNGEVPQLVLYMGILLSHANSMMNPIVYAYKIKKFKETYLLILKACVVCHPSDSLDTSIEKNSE
Description: Binding of [125I]-AB-MECA to HEK-293 cells stably expressing the human A3 receptor. To be noted: read-out: affinity at human A3 adenosine receptors. An excerpt: Inhibitors were routinely dissolved in DMSO.

A further experiment has as its target T2, rat A3 receptor (Rattus norvegicus, UniProt P28647).
T2 sequence (P28647 1-320): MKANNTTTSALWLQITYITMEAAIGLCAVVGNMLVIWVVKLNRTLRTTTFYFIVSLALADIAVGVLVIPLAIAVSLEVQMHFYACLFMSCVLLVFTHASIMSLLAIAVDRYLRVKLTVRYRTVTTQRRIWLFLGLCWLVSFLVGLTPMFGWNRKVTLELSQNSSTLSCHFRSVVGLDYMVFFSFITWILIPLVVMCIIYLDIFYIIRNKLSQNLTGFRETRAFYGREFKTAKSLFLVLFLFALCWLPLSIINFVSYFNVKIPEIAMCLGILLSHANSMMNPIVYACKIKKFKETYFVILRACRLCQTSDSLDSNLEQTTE
Kind of experiment: Binding of [35S]GTP-γ-S to rat RBL-2H3 mast cell membranes. The format is biochemical. How it is done: The binding for [^35 S]GTP-y-S (Ameersham, Chicago Ill., specific activity 1275 Ci/mmol) was carried out using rat RBL-2H3 mast cell membranes by the general method of Lorenzen et al.^47 Membranes were suspended in a buffer containing 50 mM Tris, 3 units/mL adenosine deaminase, 100 mM NaCl, and 10 mM MgCl2 (pH 7.4) and a protein concentration of 1 to 10 μg per tube. The membrane suspension was preincubated with […], R-PIA and/or riboflavin in a final volume of 125 μL buffer at 30° C. for 60 min and then transferred to ice for 20 min. [^35 S]GTP-γy-S was added to a final concentration of 0.1 nM in a total volume of 500 μL and the mixture was incubated for 30 min at 30° C. Non-specific binding was determined in the presence of 10 μM GTP-γ-S (Sigma, St. Louis Mo.). Incubation of the reaction mixture was terminated by filtration over a GF/B glass filter using a Brandell cell harvester and washed with the same buffer.
The assay involved the agonist-induced inhibition of binding of guanine nucleotide to rat RBL-2H3 mast cell membranes, which contain a high density of A3 receptors.
A general note: GTPγS resists hydrolysis and so accumulates on activated G proteins.

Experiment [2] deals with T3, rat brain A2A adenosine receptor (Rattus norvegicus, UniProt P30543).
T3 construct: A2A receptors for rat striatal membranes; from tissue; host or cells: rat striatal membranes
Kind of experiment: Displacement of specific [3H]CGS 21680 binding in rat striatal membranes. The following applies: rat striatal membranes, [3H]CGS 21680; Ki ± SEM, n = 3-6.
Description: For binding experients, membrane homogenates were frozen and stored at -20° C. for greater than 2 months. Adenosine deaminase (ADA) was purchased from Boehringer Mannheim (Indianapolis, Ind.).
(§1) Nonspecific binding was determined in the presence of 200 μM NECA. […] Additional deaminase was not added during incubation with the radioligand.

Experiment [3] addresses T4, rat brain A1 adenosine receptor (Rattus norvegicus, UniProt P25099).
T4 sequence (P25099 1-326): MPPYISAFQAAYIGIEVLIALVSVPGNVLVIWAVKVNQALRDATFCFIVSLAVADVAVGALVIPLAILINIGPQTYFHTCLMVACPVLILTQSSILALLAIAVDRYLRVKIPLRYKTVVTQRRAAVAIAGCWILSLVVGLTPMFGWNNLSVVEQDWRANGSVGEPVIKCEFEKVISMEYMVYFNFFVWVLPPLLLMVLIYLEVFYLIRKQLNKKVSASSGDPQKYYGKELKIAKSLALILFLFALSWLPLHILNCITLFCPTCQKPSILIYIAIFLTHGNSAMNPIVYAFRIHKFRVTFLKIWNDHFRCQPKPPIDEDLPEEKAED
Description: Procedures for preparing rat brain membranes and Chinese hamster ovary (CHO) cell membranes were as reported^30, 38, 44. For binding experients, membrane homogenates were frozen and stored at -20° C. for greater than 2 months.
as §1

Experiment [4] addresses T5, rat A3 adenosine receptor (Rattus norvegicus, UniProt P28647).
T5 sequence (P28647 1-320): T2 sequence (P28647 1-320)
Description: (§2) Procedures for preparing rat brain membranes and Chinese hamster ovary (CHO) cell membranes were as reported^30, 38, 44. For binding experients, membrane homogenates were frozen and stored at -20° C. for greater than 2 months. Adenosine deaminase (ADA) was purchased from Boehringer Mannheim (Indianapolis, Ind.).
(§3) Inhibitors were routinely dissolved in DMSO. […] Incubations were carried out in duplicate for 1 h at 37° C., and were terminated by rapid filtration over Whatman GF/B filters using a Brandell cell harvester (Brandell, Gaithersburg, Md.). Tubes were washed three times with 3 mL of buffer. Radioactivity was determined in a Beckman gamma 5500B γ-counter.
as §1

The target in experiment [5] is T5, rat A3 adenosine receptor. The source holds these as a separate data set.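 Also: radioligand binding on membrane homogenates, 1 h incubation at 37 °C in duplicate, gamma counting of filter-bound radioactivity, nonspecific binding defined using 200 µM NECA.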
Description: as §2, §3, §1

T3 sequence (P30543 whole entry): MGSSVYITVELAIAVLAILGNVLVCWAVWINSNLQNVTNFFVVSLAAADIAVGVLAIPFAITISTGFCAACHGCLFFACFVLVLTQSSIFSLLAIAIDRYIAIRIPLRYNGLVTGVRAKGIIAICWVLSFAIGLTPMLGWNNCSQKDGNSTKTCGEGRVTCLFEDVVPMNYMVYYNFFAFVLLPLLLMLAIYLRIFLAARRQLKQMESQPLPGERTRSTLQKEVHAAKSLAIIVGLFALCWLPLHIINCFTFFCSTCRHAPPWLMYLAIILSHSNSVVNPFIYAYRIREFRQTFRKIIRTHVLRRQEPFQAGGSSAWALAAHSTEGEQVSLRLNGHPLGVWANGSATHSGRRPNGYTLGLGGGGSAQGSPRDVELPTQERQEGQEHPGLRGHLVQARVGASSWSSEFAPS

For the molecule `CCNC(=O)[C@H]1O[C@@H](n2cnc3c(NC(=O)Nc4ccc(S(N)(=O)=O)cc4)ncnc32)[C@H](O)[C@@H]1O` [Compound 3g, N^6-(4-sulfonamido-phenylcarbamoyl)-adenosine-5'-N-ethyluronamide], the Ki in experiment [1] is 0.0561 ± 0.0091 µM; in experiment [2] it was 1.18 ± 0.36 µM; in experiment [3], 0.453 ± 0.141 µM; in experiment [4] it was 0.00973 ± 0.00075 µM; in experiment [5], 0.0097 to 0.107 µM; in experiment [5] (read-out: affinity at A3 receptors, rat A3, running text) it was 0.0097 µM. Further, the “effect on binding of [35S]GTP-γ-S” value at rat A3 receptor (FIG. 1, rat RBL-2H3 mast cell membranes) was “about as effective as the potent A3 agonists I-AB-MECA and Cl-IB-MECA; also recorded: greater potency than NECA; also recorded: increased binding of [^35 S]GTP-γ-S in a dose dependent manner”. The “agonism at rat A3 receptor” value on rat A3 receptor (functional assay, rat RBL-2H3 mast cell membranes) is “full agonist”. In addition, the A1/A3 in experiment [5] (ratio of Ki (A1) to Ki (A3), rat) was determined as 46.5. Besides, the A2A/A3 in experiment [5] (ratio of Ki (A2A) to Ki (A3), rat) is on record as 121.2.
